Data from US20190046545A1, “COMPOSITIONS WITH SPECIFIC OLIGOSACCHARIDES TO PREVENT LATER IN LIFE OBESITY OR RELATED COMORBIDITIES, BY INCREASING COLONIC SCFA PRODUCTION AND/OR BY INCREASING GLP-1 SECRETION” (NESTEC S.A., priority 2016, published 2019).

System: BALB/cByJ CRL mice
Test: SCFA production in caecum content of mice fed low-fiber diets enriched with 5% of tested fibers, measured by Gas-Liquid Chromatography
Format: in vivo
Details: 5 wt % fiber, versus low-fiber diet only
Text: 5 week old females BALB/cByJ CRL mice from Charles River were split into several groups and fed during 6 weeks based on the following protocol: • Week 1: low-fiber diet (composition is detailed in table 2) for all groups • Weeks 2 to 6: • Control group (group A): low-fiber diet (same as for week 1) • Test groups (groups B-D): low-fiber diet (same as for week 1) supplemented with 5 wt % of a tested fiber (5% of the total low fiber diet was replaced by 5% of a tested fiber)
The following fibers were tested: • BMOs=bovine milk oligosaccharides: an oligosaccharide mixture comprising 99.3% of GOS, 0.2% of N-acetylated oligosaccharide and 0.5% sialylated oligosaccharide was tested • PDX=polydextrose • Pectin
After 6 weeks, the animals of each group were sacrificed and the content from caecum was collected. The SOFA production were measured by Gas-Liquid Chromatography (GLC; amounts of SOFA in nmol/mg dry weight). The following SOFA were measured: propionate, butyrate, valerate and acetate.
The measure was made based on the following protocol: SOFA in an acid solution (pH 2.0 to 3.0) were separated on a GLC column coated with a polar stationary phase. […] After centrifugation, the sterile-filtered supernatant was ready for analysis by GLC. SOFA were measured simultaneously.
Median ratio values were calculated in order to compare the different fiber-enriched diets on SOFA production.

Substance	Caecal SCFA production (acetate, propionate, butyrate, valerate) compared with low-fiber diet
polydextrose [PDX]	less SOFA release of all kinds
Pectin	less SOFA release of all kinds
